Data as given in US20240262804A1, “NITROGEN-CONTAINING HETEROCYCLIC KETONES, PREPARATION METHODS AND MEDICINAL USES THEREOF” (Hansoh Bio LLC, priority 2021, published 2024).

Columns and labels:
[1] = molecular target: bovine cardiac myosin (Bos taurus (Bovine), UniProt Q9BE39); assay: Myosin inhibitory potency: PK/LDH-coupled ATPase assay on bovine skinned cardiac myofibrils; type: biochemical; details: pCa=6.25, 50 μM ATP, 25° C., read-out: myosin inhibition activity IC50
Method in brief: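 Bovine left-ventricle skinned myofibrils (1 mg/mL) in PM12 buffer pH 6.8 at pCa 6.25, 50 μM ATP, PK/LDH-coupled NADH depletion read at 340 nm, 25 °C.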

[2] = system: isolated rat ventricular myocytes; assay: Cardiomyocyte contractility assay (sarcomere shortening, IonOptix); type: cell-based; details: for Ratio of % FS 5 uM/15 uM: 5 uM versus 15 uM; for % FS (% reduction from baseline) at 5 uM / % FS (% reduction from baseline) at 15uM: rat ventricular myocytes, paced at 1 Hz
Protocol: The effects of compounds on sarcomere shortening in isolated rat ventricular myocytes were assessed using the IonOptix apparatus.
Myocytes were placed in a chamber mounted on the stage of an inverted microscope and continuously superfused with oxygenated Tyrode solution containing (in millimolar): 121 NaCl, 5 KCl, 2.8 NaCH3CO2, MgCl2·6H2O, Glucose, NaHCO3, Na2HPO4. 7H2O, and 1.5 mM CaCl2). Solution was preheated at 36±1° C. and electrical-field stimulated at 1 Hz by 2 platinum electrodes connected to a Myopacer field stimulator (IonOptix Corporation) with 4 ms square-wave bipolar pulses (10 V). Cells were illuminated by the microscope light. The cell image was collected by a x40 ultraviolet epifluorescence objective, diverted to the microscope side port, where the cell image was recorded by a charge coupled device (CCD) camera (MyoCam, IonOptix Corporation), converting optical brightness (pixels) into electrical signals (voltage). The MyoCam configuration allowed acquisition of up to 240 images per second (240 Hz frame rate). Contractile properties of the myocytes were analyzed in real time by a video detector and a personal computer-based data acquisition system (Ionwizard 6.0, IonOptix Corporation). Only myocytes with clear striations, quiescent prior to pacing with a resting sarcomere length greater or equal to 1.75 μm were used, since this is presumed to represent the lower limit for healthy cells.
Sarcomere shortening was monitored in control solution (predrug) until stable recordings were obtained (baseline period). To determine the response to compounds, myocytes were first superfused for 60 seconds with Tyrode's buffer followed by at least a 5 minute—(or until steady state was reached, up to 10 min) superfusion of compound. Each cell was subjected to 2 concentrations (5 and 15 uM or 5 and 10 uM) of test compounds. For some cells, a washout period was performed after the last concentration. Duration of the washout period was variable, resulting in variability in the washout data. In separate cells, a single concentration of isoproterenol (100 nM) was applied. Data were continuously recorded using the IonOptix software. Contractility data were analyzed using Ionwizard software (IonOptix). For each cell, 10-15 contractility transients at baseline and after treatment were averaged and compared.

[3] = Pharmacokinetic profiles in male SD rats (IV and PO); type: in vivo, rat; details: IV 1 mg/kg, PO 5 mg/kg, route for this parameter not given; for clearance / half-life / Vd: rat, plasma; for Vd: read-out: VSS
Protocol: Pharmacokinetic profile of compounds were determined by IV (1 mg/Kg) and PO (5 mg/Kg) administrations in male SD rats. Compounds were administrated with free base and formulated in 5% DMAC+25% PEG-400+70%(30% 2-HP-β-CD in water). The compounds were dosed at 1 mg/kg for intravenous and 5 mg/kg oral administration. Blood samples were collected at 0, 0.083, 0.25, 0.5, 1, 2, 4, 8 and 24 hours post dose, serial bleeding for plasma for the IV group. Blood samples were collected at 0, 0.25, 0.5, 1, 2, 4, 6, 8 and 24 hours post dose, serial bleeding for the PO group. Approximately 150 μL whole blood/time point were collected in K2EDTA tube via jugular vein. Blood sample was put on ice and centrifuged at 2000 g for 5 min to obtain plasma sample within 15 minutes. PK parameters were estimated by non-compartmental model using WinNonlin 8.2.

bovine cardiac myosin, sequence (Q9BE39 whole entry): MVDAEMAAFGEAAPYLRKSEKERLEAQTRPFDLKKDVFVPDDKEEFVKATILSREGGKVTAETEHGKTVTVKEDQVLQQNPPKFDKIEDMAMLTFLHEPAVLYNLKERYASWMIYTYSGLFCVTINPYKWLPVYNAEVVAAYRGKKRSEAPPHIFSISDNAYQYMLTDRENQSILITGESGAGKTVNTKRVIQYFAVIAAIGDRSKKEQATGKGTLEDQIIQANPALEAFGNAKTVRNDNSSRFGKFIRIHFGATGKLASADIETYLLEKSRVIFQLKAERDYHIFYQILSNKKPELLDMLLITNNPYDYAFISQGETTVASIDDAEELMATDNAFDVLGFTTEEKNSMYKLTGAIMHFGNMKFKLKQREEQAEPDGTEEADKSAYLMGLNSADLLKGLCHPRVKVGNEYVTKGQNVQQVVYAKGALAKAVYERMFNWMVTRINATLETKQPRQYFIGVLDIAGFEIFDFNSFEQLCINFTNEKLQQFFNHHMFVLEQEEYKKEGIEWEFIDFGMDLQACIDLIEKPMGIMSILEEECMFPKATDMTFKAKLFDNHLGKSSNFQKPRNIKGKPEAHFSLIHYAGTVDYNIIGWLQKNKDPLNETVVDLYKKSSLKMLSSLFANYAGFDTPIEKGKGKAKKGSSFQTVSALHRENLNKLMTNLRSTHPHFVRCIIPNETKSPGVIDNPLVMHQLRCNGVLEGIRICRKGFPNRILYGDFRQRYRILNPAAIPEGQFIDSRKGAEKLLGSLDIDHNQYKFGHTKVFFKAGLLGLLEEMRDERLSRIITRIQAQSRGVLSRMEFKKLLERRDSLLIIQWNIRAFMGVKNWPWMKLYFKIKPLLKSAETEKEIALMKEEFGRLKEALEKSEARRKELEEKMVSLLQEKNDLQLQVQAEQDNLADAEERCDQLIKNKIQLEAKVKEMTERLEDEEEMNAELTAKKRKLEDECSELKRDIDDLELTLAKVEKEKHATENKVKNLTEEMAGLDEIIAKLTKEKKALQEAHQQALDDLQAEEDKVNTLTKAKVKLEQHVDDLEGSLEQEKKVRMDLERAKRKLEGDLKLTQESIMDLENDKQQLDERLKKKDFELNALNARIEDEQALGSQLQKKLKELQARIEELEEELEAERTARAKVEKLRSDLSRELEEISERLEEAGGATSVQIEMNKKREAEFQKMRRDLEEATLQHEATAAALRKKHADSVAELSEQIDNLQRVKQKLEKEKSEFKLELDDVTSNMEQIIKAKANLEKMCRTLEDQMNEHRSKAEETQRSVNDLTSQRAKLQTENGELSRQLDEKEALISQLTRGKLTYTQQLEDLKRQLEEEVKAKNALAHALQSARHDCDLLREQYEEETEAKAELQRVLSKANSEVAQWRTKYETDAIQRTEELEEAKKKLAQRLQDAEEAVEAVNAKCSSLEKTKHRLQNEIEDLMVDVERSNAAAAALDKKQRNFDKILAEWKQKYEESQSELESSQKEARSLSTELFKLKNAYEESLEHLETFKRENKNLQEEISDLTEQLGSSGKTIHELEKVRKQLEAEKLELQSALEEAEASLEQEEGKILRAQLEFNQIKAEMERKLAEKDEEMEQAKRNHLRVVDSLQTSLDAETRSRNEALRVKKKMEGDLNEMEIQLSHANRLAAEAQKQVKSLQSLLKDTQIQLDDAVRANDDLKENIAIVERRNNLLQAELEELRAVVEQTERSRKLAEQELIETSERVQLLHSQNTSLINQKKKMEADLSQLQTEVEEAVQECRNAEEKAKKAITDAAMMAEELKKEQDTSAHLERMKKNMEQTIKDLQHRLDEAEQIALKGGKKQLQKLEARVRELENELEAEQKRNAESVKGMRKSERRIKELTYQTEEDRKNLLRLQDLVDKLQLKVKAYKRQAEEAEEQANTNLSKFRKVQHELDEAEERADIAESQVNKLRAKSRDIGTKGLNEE
bovine cardiac myosin, sequence (P85100 whole entry partner): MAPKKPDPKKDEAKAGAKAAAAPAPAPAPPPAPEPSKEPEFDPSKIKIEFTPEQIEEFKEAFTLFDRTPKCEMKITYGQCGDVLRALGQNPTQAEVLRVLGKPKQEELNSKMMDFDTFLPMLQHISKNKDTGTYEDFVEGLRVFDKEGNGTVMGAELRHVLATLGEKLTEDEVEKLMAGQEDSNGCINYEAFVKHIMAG
bovine cardiac myosin, sequence (Q3SZE5 whole entry partner): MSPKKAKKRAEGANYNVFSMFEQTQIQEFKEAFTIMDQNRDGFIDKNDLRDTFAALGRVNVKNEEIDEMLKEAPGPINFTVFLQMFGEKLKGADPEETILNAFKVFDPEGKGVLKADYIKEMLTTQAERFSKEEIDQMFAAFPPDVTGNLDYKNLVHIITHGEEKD

Row | SMILES | IC50 [1] [nM] | other results
1 | C[C@H](Nc1nc(=O)n(C2CCOCC2)c(=O)[nH]1)c1cc(F)cc(Cl)c1 [Example 172] | 470 | Ratio of % FS 5 uM/15 uM [2]: 2.2; % FS (% reduction from baseline) at 5 uM [2]: 63.6 +/− 3.3%; % FS (% reduction from baseline) at 15uM [2]: 28.9 +/− 8.7%; DNAUC [3]: 7631.0 ng·h/mL; clearance [3]: 2.5 mL/min/kg; half-life [3]: 3.95 h; Vd [3]: 0.57 L/kg
2 | C[C@H](Nc1nc(=O)n(C2CCOCC2)c(=O)[nH]1)c1cccc(C(F)(F)F)c1 [Example 252] | 6890 | DNAUC [3]: 3959.8 ng·h/mL; clearance [3]: 3.5 mL/min/kg; half-life [3]: 4.41 h; Vd [3]: 0.94 L/kg
3 | C[C@H](Nc1nc(=O)n(C2CCOCC2)c(=O)[nH]1)c1ccc(Cl)c(Cl)c1 [Example 165] | 200 | DNAUC [3]: 11463.4 ng·h/mL; clearance [3]: 1.67 mL/min/kg; half-life [3]: 4.58 h; Vd [3]: 0.46 L/kg
4 | C[C@H](Nc1nc(=O)n(C2CCOCC2)c(=O)[nH]1)c1ccc(F)cc1Cl [Example 162] | – | Ratio of % FS 5 uM/15 uM [2]: 1.9; % FS (% reduction from baseline) at 5 uM [2]: 60.8 +/− 12.7%; % FS (% reduction from baseline) at 15uM [2]: 32.2 +/− 5.3%; DNAUC [3]: 4195.1 ng·h/mL; clearance [3]: 4.17 mL/min/kg; half-life [3]: 3.74 h; Vd [3]: 0.97 L/kg
5 | C[C@H](Nc1nc(=O)n(C2CCOCC2)c(=O)[nH]1)c1cccc(-c2ccccc2)c1 [Example 220] | 1320 | –
6 | C[C@H](Nc1nc(=O)n(C2CCOCC2)c(=O)[nH]1)c1cccc(N2CCN(C)CC2)c1 [Example 212] | 17700 | –
7 | Cc1ccc(F)c([C@H](C)Nc2nc(=O)n([C@@H](C)C(F)(F)F)c(=O)[nH]2)c1 [Example 311] | 2360 | –
8 | COCCN1CCC(n2c(=O)nc(N[C@@H](C)C3CCCCC3)[nH]c2=O)CC1 [Example 33] | 3860 | –
9 | C[C@H](Nc1nc(=O)n(C2CCOCC2)c(=O)[nH]1)c1c(F)cccc1F [Example 12] | 2140 | –
10 | CC(=O)N1CCC(c2cccc([C@H](C)Nc3nc(=O)n(C4CCOCC4)c(=O)[nH]3)c2)CC1 [Example 329] | 1240 | –
11 | CC(C)n1c(=O)nc(N[C@@H](C)c2cccc([C@H](C)O)c2)[nH]c1=O [Example 343] | 1510 | –
12 | Cc1ccc([C@H](C)Nc2nc(=O)n(C3CCOCC3)c(=O)[nH]2)cc1C [Example 153] | 1230 | –
13 | Cc1cccc([C@H](C)Nc2nc(=O)n(C3CCOC(C)C3)c(=O)[nH]2)c1 (stereo partly shown) [Example 100] | 5410 | –
14 | O=c1nc(N[C@H](c2cccc(C3CN(CC(F)(F)F)C3)c2)C(F)F)[nH]c(=O)n1C1CCOCC1 [Example 259] | 450 | –
15 | Cc1cccc([C@H](C)Nc2nc(=O)n([C@H]3CC[C@H](NC(=O)OC(C)(C)C)CC3)c(=O)[nH]2)c1 [Example 97] | 1290 | –
16 | Cc1cccc([C@H](C)Nc2nc(=O)n(C3CCN(CCF)CC3)c(=O)[nH]2)c1 [Example 301] | 800 | –
17 | CC(=O)N1CCC(c2cccc([C@H](C)Nc3nc(=O)n(C(C)C)c(=O)[nH]3)c2)CC1 [Example 289] | 1800 | –
18 | CC(Nc1nc(=O)n(C2CCOCC2)c(=O)[nH]1)c1ccccc1C(F)(F)F (stereo not shown) [Example 129] | 230 | –
19 | C[C@H](Nc1nc(=O)n(C2CCOCC2)c(=O)[nH]1)c1cccc(N2CCOCC2)c1 [Example 206] | 3800 | –
20 | COC[C@H](Nc1nc(=O)n(C2CCOCC2)c(=O)[nH]1)c1cccc(C)c1 [Example 294] | 880 | –
21 | C[C@H](Nc1nc(=O)n(C2CCOCC2)c(=O)[nH]1)c1cccc(CC(F)(F)F)c1 [Example 274] | 390 | –
22 | CC(Nc1nc(=O)n(C2CCOCC2)c(=O)[nH]1)c1cc(F)ccc1F (stereo not shown) [Example 319] | 1280 | –
23 | C[C@H](Nc1nc(=O)n(C2CCOCC2)c(=O)[nH]1)c1cccc(C2CN(C(=O)OC(C)(C)C)C2)c1 [Example 336] | 1160 | –
24 | C[C@H](Nc1nc(=O)n([C@H](C)C(F)(F)F)c(=O)[nH]1)C1CCCCC1 [Example 15] | 2160 | –
25 | C[C@H](Nc1nc(=O)n([C@@H](C)C(F)(F)F)c(=O)[nH]1)c1ccc(OC(F)(F)F)cc1 [Example 175] | 2760 | –
26 | C[C@H](Nc1nc(=O)n(C2(C(F)(F)F)CC2)c(=O)[nH]1)C1CCCCC1 [Example 54] | 4520 | –

Row | SMILES | IC50 [1] [nM] | other results
27 | C=Cc1ccc(C(C)Nc2nc(=O)n(C3CCOCC3)c(=O)[nH]2)cc1 (stereo not shown) [Example 141] | 6790 | –
28 | C[C@H](Nc1nc(=O)n([C@H]2CC[C@@H](F)CC2)c(=O)[nH]1)C1CCCCC1 [Example 86] | 1830 | –
29 | C[C@H](Nc1nc(=O)n(C2CCOCC2)c(=O)[nH]1)c1cccc(-c2cncnc2)c1 [Example 223] | 890 | –
30 | Cc1cccc([C@H](Nc2nc(=O)n(C3CCOCC3)c(=O)[nH]2)C(F)(F)F)c1 [Example 280] | 2430 | –
31 | Cc1n[nH]cc1-c1cccc([C@H](C)Nc2nc(=O)n(C3CCOCC3)c(=O)[nH]2)c1 [Example 230] | 5710 | –
32 | Cc1ccc(F)c([C@H](C)Nc2nc(=O)n([C@H]3CCOC[C@H]3F)c(=O)[nH]2)c1 [Example 314] | 770 | –
33 | COC(=O)c1ccc([C@H](C)Nc2nc(=O)n(C3CCOCC3)c(=O)[nH]2)cc1 [Example 247] | 2420 | –
34 | Cc1cc([C@@H](C)Nc2nc(=O)n(C3CCOCC3)c(=O)[nH]2)c(F)cc1F [Example 272] | 370 | –
35 | C[C@@H](Nc1nc(=O)n(C2CCOCC2)c(=O)[nH]1)c1ccc(C(F)(F)F)cc1 [Example 333] | 1030 | –
36 | CC(Nc1nc(=O)n(C2CCOCC2)c(=O)[nH]1)c1ccc2c(c1)OCO2 (stereo not shown) [Example 128] | 1880 | –
37 | C[C@H](Nc1nc(=O)n(C(C2CC2)C(F)(F)F)c(=O)[nH]1)C1CCCCC1 (stereo partly shown) [Example 18] | 480 | –
38 | COC[C@H](Nc1nc(=O)n(C(C)C)c(=O)[nH]1)c1cccc(C)c1 [Example 285] | 510 | –
39 | CC(C)[C@H](O)c1cccc([C@H](C)Nc2nc(=O)n(C3CCOCC3)c(=O)[nH]2)c1 [Example 345] | 790 | –
40 | C[C@H](Nc1nc(=O)n([C@@H]2CCOC[C@@H]2F)c(=O)[nH]1)c1ccc(Cl)c(Cl)c1 [Example 320] | 1020 | –
41 | Cc1cccc([C@H](C)Nc2nc(=O)n([C@H]3CCOC[C@H]3F)c(=O)[nH]2)c1 [Example 316] | 1230 | –
42 | Cc1cc([C@H](C)Nc2nc(=O)n(C(C)C)c(=O)[nH]2)ccc1F [Example 305] | 950 | –
43 | C[C@H](Nc1nc(=O)n([C@H]2CCOC[C@H]2F)c(=O)[nH]1)c1ccc(F)cc1F [Example 281] | 2260 | –
44 | C[C@H](Nc1nc(=O)n(C2CCCCC2)c(=O)[nH]1)C1CCCCC1 [Example 60] | 7410 | –
45 | C[C@H](Nc1nc(=O)n(C2CCOCC2)c(=O)[nH]1)c1cccc(C2=CCCCC2)c1 [Example 331] | 1110 | –
46 | C[C@H](Nc1nc(=O)n(C2CCOCC2)c(=O)[nH]1)c1ccc(C#N)cc1 [Example 169] | 1450 | –
47 | CC(Nc1nc(=O)n(C(C)C)c(=O)[nH]1)C1CCC(F)(F)CC1 (stereo not shown) [Example 66] | 10200 | –
48 | C[C@H](Nc1nc(=O)n(-c2cccnc2)c(=O)[nH]1)C1CCCCC1 [Example 24] | 9140 | –
49 | CC(C)n1c(=O)nc(N[C@@H](C)c2cccc(C3CCNCC3)c2)[nH]c1=O [Example 293] | 2810 | –
50 | C[C@H](Nc1nc(=O)n(C2CCOCC2)c(=O)[nH]1)c1cccc(C2=CCN(C(=O)OC(C)(C)C)CC2)c1 [Example 210] | 3300 | –
51 | C[C@H](Nc1nc(=O)n([C@H]2CC[C@@H](O)CC2)c(=O)[nH]1)C1CCCCC1 [Example 237] | 4780 | –
52 | Cc1cccc([C@@H](Nc2nc(=O)n(C3CCOCC3)c(=O)[nH]2)C(F)(F)F)c1 [Example 279] | 720 | –
